Test results as given in patent US10759796B2, “CXCR4 inhibitors and uses thereof” (X4 Pharmaceuticals, Inc., priority 2016, dated 2020).

What was measured:
[1] = target: Jurkat cells expressing CXCR4 (Homo sapiens (Human), UniProt P61073); assay: Chemokine (CXCL12-AF647) binding inhibition assay; conditions: CXCL12-AF647 25 ng/mL, read-out: IC50 CXCL-12 binding Jurkat
How it was run: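 Cells in HBSS, 20 mM HEPES, 0.2% BSA, pH 7.4, preincubated 15 min at room temperature with compound, then 25 ng/mL CXCL12-AF647 for 30 min. After washing and paraformaldehyde fixation, bound ligand read by flow cytometry; percent inhibition calculated from MFI relative to unlabeled and ligand-only controls.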

in vitro = conditions: human, Caco-2, pH 7.4
How it was run: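 Compounds at 10 μM in HBSS pH 7.4 (0.1–0.3% DMSO) were dosed on Caco-2 monolayers, apical-to-basolateral and basolateral-to-apical, for 90 min at 37 °C, in duplicate. Monolayer integrity was checked by TEER and lucifer yellow flux, read by fluorescence at 485/535 nm. Compound was quantified by LC-MS/MS and Papp calculated.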

[2] = target: CXCR-4 transfected U87 cell line (U87.CXCR4) (Homo sapiens (Human), UniProt P61073); assay: Intracellular CXCL-12-induced calcium mobilization assay (FLIPR); type: cell-based; conditions: U87.CXCR4 cells, CXCL-12 25-50 ng/mL; read-out: IC50 CXCL-12 Ca2+ flux U87.CXCR4+
How it was run: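 U87.CXCR4 cells were seeded at 20,000 per well, cultured 12 hours, then loaded with 4 μM Fluo-2 AM for 45 min at 37° C. in HBSS with 20 mM HEPES and 0.2% BSA, pH 7.4. Calcium flux triggered by CXCL-12 (25-50 ng/mL) was tracked over time by FLIPR fluorescence at 37° C.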

CXCR-4 transfected U87 cell line (U87.CXCR4), sequence (P61073 whole entry): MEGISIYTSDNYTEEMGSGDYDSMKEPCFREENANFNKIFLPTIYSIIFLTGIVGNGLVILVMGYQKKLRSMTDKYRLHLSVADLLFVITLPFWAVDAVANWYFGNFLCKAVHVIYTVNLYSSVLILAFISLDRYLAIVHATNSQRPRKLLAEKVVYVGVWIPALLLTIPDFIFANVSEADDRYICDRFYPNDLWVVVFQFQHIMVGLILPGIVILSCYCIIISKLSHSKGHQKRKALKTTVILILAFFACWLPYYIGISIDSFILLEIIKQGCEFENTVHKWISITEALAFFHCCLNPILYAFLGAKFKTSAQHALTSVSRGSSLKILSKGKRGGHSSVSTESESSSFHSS
Jurkat cells expressing CXCR4, sequence (P61073 whole entry): as above

Row | Compound | IC50 [1] [nM] | Papp A→B at 90 min, 10 μM (in vitro) [×10⁻⁶ cm/s] | Papp B→A at 90 min, 10 μM (in vitro) [×10⁻⁶ cm/s] | efflux ratio at 90 min, 10 μM (in vitro) | IC50 [2] [nM]
1 | Cc1cccnc1[C@@H]1CCC[C@H](c2nc3ccccn3c2N2CCN(C)CC2)N1 [Compound I-154] | 100 to 1000 | 0.1 to 10 | 10 to 30 | 0.1 to 10 | ≥ 1000
2 | CC(C)N1CCN(c2cccc3nc([C@H]4CCC[C@@H](c5ncccc5Cl)N4C)c(Cl)n23)CC1 [Compound I-123] | 0.01 to 100 | 0.1 to 10 | 0.1 to 10 | 0.1 to 10 | ≥ 1000
3 | CCOCc1c([C@H]2CCC[C@@H](c3ncccc3C)N2C)nc2cccc(N3CCN(CC)CC3)n12 [Compound I-56] | 0.01 to 100 | 0.1 to 10 | 10 to 30 | 0.1 to 10 | 0.01 to 100
4 | Cc1cccnc1[C@H]1CCC[C@@H](c2nc3ccccn3c2CCCN(C)C)N1C (stereo in doubt) [Compound I-28] | 0.01 to 100 | 0.1 to 10 | 10 to 30 | > 30 | 100 to 1000
5 | CCN1CCN(c2cccc3nc([C@H]4CCC[C@@H](c5ncccc5C(C)C)N4C)cn23)CC1 [Compound I-111] | 100 to 1000 | 0.1 to 10 | 0.1 to 10 | 0.1 to 10 | ≥ 1000
6 | Cc1cccnc1[C@@H]1CCC[C@H](c2cn3c(N4CCNC5(CC5)C4)cccc3n2)N1C [Compound I-156] | 0.01 to 100 | 0.1 to 10 | 10 to 30 | 0.1 to 10 | 0.01 to 100
7 | CC[C@@H](O)c1c([C@H]2CCC[C@@H](c3ncccc3C)N2C)nc2cccc(N3CCN(C)CC3)n12 [Compound I-139] | 0.01 to 100 | 0.1 to 10 | > 30 | > 30 | 100 to 1000
8 | CN1CCN(c2cccc3nc([C@H]4CCC[C@@H](c5ncccc5Cl)N4C)c(CO)n23)CC1 [Compound I-116] | 0.01 to 100 | 0.1 to 10 | 10 to 30 | 0.1 to 10 | 0.01 to 100
9 | Cc1cccnc1[C@@H]1CCC[C@H](c2cn3c(N4CCNCC4)cccc3n2)N1C [Compound I-4] | 0.01 to 100 | 0.1 to 10 | 10 to 30 | > 30 | 0.01 to 100
10 | Cc1cccnc1[C@@H]1CCC[C@H](c2nc3cccc(N4CCN(C)CC4)n3c2COC2CC2)N1C [Compound I-85] | 0.01 to 100 | 0.1 to 10 | 10 to 30 | 0.1 to 10 | 0.01 to 100
11 | CN1CC2CCC(C1)N2c1cccc2nc([C@H]3CCC[C@@H](c4ncccc4Cl)N3C)c(CO)n12 [Compound I-134] | 0.01 to 100 | 10 to 30 | 10 to 30 | 0.1 to 10 | 0.01 to 100
12 | CCN1CCN(Cc2c([C@H]3CCC[C@@H](c4ncccc4C)N3C)nc3ccccn23)CC1 [Compound I-40] | 0.01 to 100 | 0.1 to 10 | > 30 | > 30 | 0.01 to 100
13 | Cc1cccnc1[C@@H]1CCC[C@H](c2cn3c(N4C5CCC4CN(C)C5)cccc3n2)N1 [Compound I-186] | 0.01 to 100 | 0.1 to 10 | 10 to 30 | 0.1 to 10 | 0.01 to 100

Further lines, results first:

Row | IC50 [1] [nM] | Papp A→B at 90 min, 10 μM (in vitro) [×10⁻⁶ cm/s] | Papp B→A at 90 min, 10 μM (in vitro) [×10⁻⁶ cm/s] | efflux ratio at 90 min, 10 μM (in vitro) | IC50 [2] [nM] | Compound
14 | 0.01 to 100 | 0.1 to 10 | 0.1 to 10 | 10 to 30 | 0.01 to 100 | CNCCCc1c([C@@H]2CCC[C@H](c3ncccc3C)N2C)nc2ccccn12 (stereo in doubt) [Compound I-27]
15 | 0.01 to 100 | 0.1 to 10 | 0.1 to 10 | 0.1 to 10 | 0.01 to 100 | CCN1[C@@H](c2nc3cccc(N4CCN(C)CC4)n3c2Br)CCC[C@H]1c1ncccc1C [Compound I-46]
16 | 0.01 to 100 | 0.1 to 10 | 0.1 to 10 | 0.1 to 10 | 0.01 to 100 | CCN1CCN(c2cccc3nc([C@H]4CCC[C@@H](c5ncccc5C)N4C)c(Cl)n23)CC1 [Compound I-88]
17 | 0.01 to 100 | 0.1 to 10 | 10 to 30 | 0.1 to 10 | 0.01 to 100 | Cc1cccnc1[C@@H]1CCC[C@H](c2cn3c(N4CCN(C)CC4)cccc3n2)N1C [Compound I-1]
18 | 0.01 to 100 | 10 to 30 | 10 to 30 | 0.1 to 10 | 0.01 to 100 | Cc1cccnc1[C@@H]1CCC[C@H](c2cn3ccccc3n2)N1CCc1cnccn1 [Compound I-9]
19 | 0.01 to 100 | 0.1 to 10 | 10 to 30 | 10 to 30 | 0.01 to 100 | Cc1cccnc1[C@@H]1CCC[C@H](c2nc3cccc(N4CCN(C)CC4)n3c2C)N1C [Compound I-86]
20 | 0.01 to 100 | 0.1 to 10 | 10 to 30 | 10 to 30 | 0.01 to 100 | Cc1cccnc1[C@@H]1CCC[C@H](c2cn3c(N4CCN(C)CC4)cccc3n2)N1C(C)C [Compound I-126]
21 | 0.01 to 100 | 0.1 to 10 | 0.1 to 10 | 0.1 to 10 | 100 to 1000 | CN(C)C1CCN(c2cccc3nc([C@H]4CCC[C@@H](c5ncccc5Cl)N4C)c(Cl)n23)CC1 [Compound I-132]
22 | 0.01 to 100 | 0.1 to 10 | 10 to 30 | 0.1 to 10 | 100 to 1000 | Cc1cccnc1[C@@H]1CCC[C@H](c2nc3ccccn3c2CCCN2CCOCC2)N1C [Compound I-29]
23 | 0.01 to 100 | 0.1 to 10 | 10 to 30 | 0.1 to 10 | 0.01 to 100 | CCOCc1c([C@H]2CCC[C@@H](c3ncccc3C)N2C)nc2cccc(N3CCN(C)CC3)n12 [Compound I-21]
24 | 0.01 to 100 | 0.1 to 10 | 10 to 30 | 10 to 30 | 0.01 to 100 | Cc1cccnc1[C@@H]1CCC[C@H](c2cn3c(N4CCN(C)CC4)ccc(N)c3n2)N1C [Compound I-76]
25 | 0.01 to 100 | 0.1 to 10 | 0.1 to 10 | 0.1 to 10 | 0.01 to 100 | Cc1cccnc1[C@@H]1CCC[C@H](c2nc3cccc(N4CCN(C)CC4)n3c2Cl)N1C(C)C [Compound I-127]
26 | 0.01 to 100 | 0.1 to 10 | 0.1 to 10 | 0.1 to 10 | 0.01 to 100 | Cc1cccnc1[C@@H]1CCC[C@H](c2nc3cccc(N4CCN(C)CC4)n3c2Br)N1C(C)C [Compound I-47]
27 | 0.01 to 100 | 0.1 to 10 | 10 to 30 | 0.1 to 10 | 0.01 to 100 | Cc1cccnc1[C@@H]1CCC[C@H](c2nc3cccc(N4CCN(C)CC4)n3c2CO)N1C [Compound I-11]
28 | 0.01 to 100 | 10 to 30 | 10 to 30 | 0.1 to 10 | 0.01 to 100 | Cc1cccnc1[C@@H]1CCC[C@H](c2nc3c(N)ccc(N4CCN(C)CC4)n3c2Cl)N1C [Compound I-164]
